# Assay results reported in patent US11952431B2, “Neutrophil-binding peptides” (YISSUM RESEARCH DEVELOPMENT COMPANY OF THE HEBREW …, priority 2020, dated 2024).
# Entries after “also recorded” stand apart in the source; their conditions may differ.
# What was measured:
# neutrophils [1] = test: Confocal imaging of 16-LQI with Gr-1 neutrophils; format: cell-based, mouse
# Method: FIGS. 2A-I: (2A) Schematic representation of the structure of a tetrameric LQI. […] (2E) Representative histogram showing the percent binding of 16-LQI to each WBC population in healthy Balb/C mice following ex vivo incubation and staining with Streptavidin-Cy3, as analyzed by flow cytometry. *=gating based on light scatter. […] Ly6G^+ population represent HDN and Ly6G− cells are other WBCs. […] (2I) Representative image of confocal microscopy with Gr-1 neutrophils (green) bound by the 16-LQI (red).
# other WBC = test: LQI tetramer alone or 16-LQI binding to WBCs, flow cytometry; design: species or system mouse; settings: WBCs from 4T1-tumor bearing mice, 30 min at 4° C.
# Method: (§1) After washing, the cells were stained with 50 μl 3.3 μg/ml of Streptavidin-Cy3 (SA-Cy3).
# (§2) “Tetramer-Streptavidin Complex”:1 μl of the 309 μM stock solution of the tetrameric peptide was preincubated with 300 μl of 3.3 μg/ml SA-Cy3 for 30 min at RT. 100 μl of LQI tetramer-SA-Cy3 mix was then used to stain 0.5×10^6 cells.
# (§3) The cells were washed and analyzed by flow cytometry.
# neutrophils [2] = test: as above; design: species or system mouse; settings: WBCs from 4T1-tumor bearing mice, 30 min at 4° C.
# Method: as §1, §2, §3
# [3] = tested on: circulating CD177+ cells (neutrophils); test: Flow cytometry of WBC stained for CD177 and 16-LQI; format: binding, mouse
# Description: (§4) (21C-D) Representative dot plots of isolated WBC stained with (21C) Ly6G and CD177 or (21D) CD177 and 16-LQI. […] (21F) Representative STORM imaging of a single neutrophil with staining of CD177 (green) and 16-LQI (red), overlay with brightfield (left) or DAPI staining of nucleus (right). (21G) Quantification of CD177 and 16-LQI interaction for image depicted in (E) using the ImageJ Interaction Factor plugin.
# [4] = tested on: murine neutrophils (HDNs from 4T1-tumor bearing mice); test: Titration of binding to purified HDNs, flow cytometry; design: species or system mouse
# Method: Analysis was performed by flow cytometry.
# circulating neutrophils = test: Ex vivo binding to circulating neutrophils of healthy and tumor bearing mice; design: species or system mouse
# Method: 0.5×10^6 purified HDNs were stained in 100 μl of preincubated 3.3 μg/ml 16-LQI-Cy3 solution for 30 min at 4° C. […] After staining, cells were washed and analyzed by flow cytometry.
# CD177 [5] = biological target: T1, CD177 (Mus musculus, UniProt Q8R2S8); test: STORM imaging of CD177 and 16-LQI on a neutrophil; format: binding; design: endogenous in cells; host or cells: murine neutrophils
# T1 sequence (Q8R2S8 22-817): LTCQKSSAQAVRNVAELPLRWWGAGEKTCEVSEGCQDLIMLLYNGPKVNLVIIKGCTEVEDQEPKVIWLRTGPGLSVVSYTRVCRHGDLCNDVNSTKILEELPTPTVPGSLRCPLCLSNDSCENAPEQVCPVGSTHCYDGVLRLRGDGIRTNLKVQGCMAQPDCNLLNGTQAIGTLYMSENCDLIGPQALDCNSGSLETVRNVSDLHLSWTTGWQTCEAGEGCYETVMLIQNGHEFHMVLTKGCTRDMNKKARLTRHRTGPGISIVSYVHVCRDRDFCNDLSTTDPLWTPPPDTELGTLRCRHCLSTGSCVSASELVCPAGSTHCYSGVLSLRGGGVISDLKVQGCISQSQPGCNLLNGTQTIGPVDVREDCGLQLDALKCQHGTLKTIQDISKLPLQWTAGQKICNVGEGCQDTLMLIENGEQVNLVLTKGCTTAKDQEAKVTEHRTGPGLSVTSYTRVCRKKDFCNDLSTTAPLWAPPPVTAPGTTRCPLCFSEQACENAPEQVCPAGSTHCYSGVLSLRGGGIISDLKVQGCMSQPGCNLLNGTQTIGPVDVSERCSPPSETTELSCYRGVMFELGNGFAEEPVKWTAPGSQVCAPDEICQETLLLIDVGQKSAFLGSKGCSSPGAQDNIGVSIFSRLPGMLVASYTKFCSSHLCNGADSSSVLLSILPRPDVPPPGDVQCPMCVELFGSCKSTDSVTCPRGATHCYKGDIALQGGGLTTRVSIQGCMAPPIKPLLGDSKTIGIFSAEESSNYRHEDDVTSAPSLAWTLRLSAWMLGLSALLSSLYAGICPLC
# Description: as §4
# neutrophils [6] = test: Doublet analysis of flow cytometry data for crosslinking of neutrophils; format: cell-based, mouse
# Method: In order to rule out that there is a crosslinking between neutrophils when incubating with the LQI tetramer-SA-complex, flow cytometry data was analyzed to assess if there was an increase in doublet cells after incubation with the LQI tetramer-SA-complex. It is possible to examine the light scatter plots and compare the height signal of a voltage pulse (SSC-H, FSC-H) to the area values (SSC-A, FSC-A; A=Height*Width). If a doublet passes the laser beam in the flow cytometer, the width of the pulse signal (corresponds to time) will increase and therefore the value for the area (SSC-A and FSC-A) will increase. By comparing e.g. SSC-H and SSC-A it is possible to identify doublets because they are outliers in the blot.
# [7] = tested on: PMA stimulated ROS production in neutrophils; test: PMA induced ROS production after pretreatment with DPI or loaded nanoparticles; format: cell-based; settings: pretreated 3 hrs with 10 ul NP or 1 uM free DPI, then 50 nM PMA
# Method: PLGA NPs are known to gradually degrade within the cell, releasing any encapsulated payload. Therefore, whether neutrophil degranulation ROS production could be modulated by encapsulating small molecule inhibitors within neutrophil specific NPs (NSNPs) was tested. […] DPI was loaded in the LQI-coated nanoparticles using a single emulsion encapsulation process. Then, neutrophils were pretreated for 3 hrs with 10 ul empty NP (Empty NP), 10 ul DPI-loaded NP (NP+DPI) or 1 uM free DPI. After one wash, neutrophils were stimulated with 50 nM PMA to induce ROS production. Positive control for PMA induction were neutrophils pretreated with vehicle (empty NP). Negative control (Cont.) were untreated neutrophils.
# [8] = tested on: 4T1 cancer cells co-cultured with HDNs
# Method: In vitro luciferase assay to monitor the anti-tumor activity of isolated neutrophils (‘Killing Assay’): 5,000 luciferase-labeled 4T1 breast carcinoma cells were seeded in 100 μl OptiMem medium containing 2% heat-inactivated FCS in each well of a white 96-flat-bottom well plate. 24 hours after seeding the tumor cells, 1×10^5 HDNs purified from the circulation of 4T1-tumor-bearing mice were added in 50 μl OptiMem with 2% FCS. The co-culture was incubated overnight. Control wells were incubated in 50 μl medium without neutrophils. Multiple repeats (12 wells) were done of each experimental setting. The supernatant was aspirated and 50 μl of cell culture lysis buffer were added (Promega). The plate was incubated for 15 min on an orbital shaker and then read in the plate-reader. Well-wise 50 μl of in-house prepared luciferase assay solution was injected during the measurement, and chemiluminescence was read for 10 sec per well. % tumor lysis was calculated by the following formula: % tumor lysis=(1−[luminescence of samples with neutrophils]/[luminescence of samples in medium])×100%.
# In more details, 5.000 luciferase-labeled 4T1 breast carcinoma cells were cultured for 18 hours. […] The next day, luciferin dependent chemiluminescence was measured and the percentage of killing was calculated compared to control wells that were not cultured with HDNs. […]
# [9] = tested on: neutrophils (HDNs) from 4T1 tumor bearing Balb/C mice
# Method: 800 μl of 2% FCS/RPMI medium were placed into the 24-well plate, then Millicell® cell culture inserts with a pore size of […] were placed into the wells and allowed to soak for 5 min. HDNs were suspended to a density of 250,000 cells/ml in 2% FCS/RPMI and 200 μl of the cell suspension were placed into the upper chamber of the transwell insert. Migration was stimulated by addition of […] CXCL2 to the bottom chamber of the wells (consider V=800 μl), and peptide was added to HDN in the upper chamber in two different concentrations (3.09 μM or 309 nM considering […]). Assay was stopped after 1.5 hr and inserts were removed with a forceps. Each condition was tested in triplicate. 5 pictures were taken per well at the same coordinates (middle, top, bottom, left, right). Cells per field of view were counted using ImageJ.
# The purified HDNs were placed in the upper chamber of a transwell (pore size 5 μm) in 2% FCS/RPMI medium. The lower chamber contained either only 2% FCS/RPMI medium or the chemokine CXCL2 to induce neutrophil migration. […] The assay was stopped after 1.5 h incubation, five pictures of each well were taken, counted and averaged. The experiment was done in triplicates.
# CD177 [10] = biological target: T1, CD177; settings: neutrophil lysate 3 h, mass spectrometry
# Method: After washing, the bound proteins were eluted by incubating the beads for 10 min at 95° C. in protein sample buffer containing beta-mercaptoethanol. The gel was stained using silver staining. Lanes of the eluates of peptide- and control-beads were cut out and analyzed by mass spectrometry.
# [11] = tested on: tumor-associated neutrophils (TANs); settings: TANs from 4T1 tumors, 30 min at 4° C.
# Description: After staining, cells were washed and analyzed by flow cytometry.
# murine CD177 = biological target: T2, murine CD177 (Mus musculus, UniProt Q8R2S8); test: Binding to HEK293T cells ectopically expressing CD177; settings: control versus CD177-overexpressing cells
# T2 construct: expressed in transfected cells; host or cells: HEK293T
# T2 sequence (Q8R2S8 22-817): T1 sequence (Q8R2S8 22-817)
# murine neutrophils = test: Phage-display screening of a peptide library on murine neutrophils; format: binding, mouse; settings: prevalence in the final eluate, average of 5 replicates
# Method: A phage-display screening of a peptide library was conducted, in a similar way to a screen conducted by Mazzucchelli et al. (Blood, 1999, 93(5), 1738-1748). In the present screen, a library of pages displaying 10^12 different peptides on their VIII protein was used to identify peptides that bind to murine neutrophils. The peptides in the library were random sequences of 6-12 amino acids in linear or cyclic form (Ryvkin et al., 2018, Nucleic Acids Research, 2018, Vol. 46, No. 9 e52). The screen was conducted using murine Normal-Density Neutrophils (NDN) for positive selection, whereas monocytes and lymphocytes served for negative selection. Following 3 rounds of positive panning and 2 interlaced rounds of negative panning, the neutrophil affinity selected phages were eluted and sequenced (FIG. 11). The top-ranking enriched peptide sequences and their prevalence in the final eluate (average of 5 replicates) are presented in Table 3.
# [12] = tested on: murine neutrophils (HDNs from 4T1 tumor bearing Balb/C mice); test: Competition assay of LQI phage binding with synthetic LQI peptide constructs; design: species or system mouse; settings: peptide 20 min, then 10^10 LQI phages; M13-PE flow cytometry
# Method: Several LQI monomeric peptide conjugates were synthesized by tagging the N-terminus of LQI peptide with Cy5, biotin or fluorescein (FIG. 1C). Competition assays were then performed in order to evaluate the binding of LQI and its conjugates to murine neutrophils. For the competition assays, 1×10^6 density-gradient purified HDNs from 4T1 tumor bearing Balb/C mice were incubated first with each of the synthetic peptides for 20 min, and later incubated with 10^10 phages presenting the LQI peptide on their surface. Phage binding was detected by flow cytometry with a M13-PE antibody.
# monocytes or lymphocytes = test: Binding of peptide-presenting phage to WBC of 4T1 tumor bearing mice (anti-M13 PE, flow cytometry); design: species or system mouse; settings: phage presenting the peptide
# Method: (§5) FIGS. 1A-D: Validation of Phage Binding of Highest-Ranking Peptides Sequences Selected on Mouse Neutrophils. […] (SEQ ID NO: 9) peptide to neutrophils (Ly6G+CD11b+, red histogram) and other WBC (Ly6G−CD11b−, blue histogram) was evaluated using anti-M13 PE-labelled antibody and (1A) flow cytometry analysis or (1B) microscopy. (1C) Overview of LQI peptide constructs—the LQI peptide sequence on the phage is inserted within the protein VIII coat protein of the phage (LQI peptide in orange) and neighboring amino acid residues are depicted (recombinant LQI pVIII). An unlabeled, Cy5-labeled, biotin-labeled and the LQI peptide construct including neighboring amino acids from coat protein VIII as well as a glycine linker and fluorescein, were generated and tested for binding. (1D) Competition assay of LQI phage binding and LQI peptide constructs. Neutrophils were incubated with the LQI-presenting phage (black line) alone or with the LQI-presenting phage and different LQI peptide constructs at the same time (blue line). Phage binding to neutrophils was quantified using anti-M13-PE antibody (only M13-PE=dotted line).
# (§6) The peptide having the best binding obtained in the screening was the peptide LQI, consisting of the amino acid sequence […] (SEQ ID NO: 9).
# [13] = tested on: neutrophils (Ly6G+CD11b+); test: as above; design: species or system mouse; settings: phage presenting the peptide
# Method: as §5, §6
compound,measurement,setting,value
"16-LQI: LQI tetramer-streptavidin (SA) complex, a 16-mer of the LQI-peptide [Peptide 16-LQI]",uptake seen by confocal imaging,neutrophils [1],engulfed specifically by neutrophils
same,binding to other WBC,other WBC,~10%
same,binding of neutrophils,neutrophils [2],100%
same,binding to circulating CD177+ cells,[3],all circulating CD177+ cells (neutrophils) bind
same,affinity for neutrophils relative to LQI-tetramer alone,[4],more than 75 times
same,specificity to circulating neutrophils (Ly6G+ cells),circulating neutrophils; mice bearing 4T1 tumors,strong specificity
same,binding to circulating neutrophils,"circulating neutrophils; neutrophils isolated from healthy mice, ex vivo",87%
same,clusters in which CD177 and 16-LQI signals overlap,CD177 [5],> 90%
same,percentage of doublets versus cells stained with only SA-Cy3,neutrophils [6],Differences were not detected
"c1ccc2c(c1)[I+]c1ccccc1-2 [DPI, diphenyleneiodonium chloride]",effect on PMA stimulated ROS production,[7],efficiently blocked; also recorded: completely blocked ROS production
(LQIQSWSSSP (SEQ ID NO: 9) Doa-Doa-C)4-(Mpa)-4-Lys2-Lys-beta-Ala-Lys(Biotin)-beta-Ala-OH [LQI tetramer],effect on the ability of HDNs to kill cancer cells,[8],does not affect the ability of HDNs to kill cancer cells
same,effect on neutrophil migration,"[9]; 3.09 μM and 309 nM in upper chamber, CXCL2 in lower chamber, 1.5 h",no significant effect on neutrophil migration
same,chemoattractant activity,[9]; migration towards media containing LQI-tetramer,does not itself act as a chemoattractant
same,binding to other WBC,other WBC,~50%
same,binding of neutrophils,neutrophils [2],~100%
same,peptide/control ratio of CD177 in pulldown,CD177 [10],7.89
same,Kd,"[4]; purified HDNs, flow cytometry",3.3 µM
same,binding to the different types of neutrophils,circulating neutrophils; summary FIG. 2H,very high efficiency
same,binding efficiency to TANs,[11],98%
LQIQSWSSSP,binding to HEK293T cells,murine CD177,binds only to HEK293T cells ectopically expressing the murine CD177
same,Prevalence (%),murine neutrophils,28.4%
same,competition with LQI phage binding to neutrophils,[12],able to compete with the phage binding to neutrophils
same,binding of phage to monocytes or lymphocytes,monocytes or lymphocytes,no detectable binding
same,binding of phage to neutrophils,[13],95%
LSIVSGSALNHL,Prevalence (%),murine neutrophils,2.9%
LTLVSERPMI,Prevalence (%),murine neutrophils,1.5%
STMTILGTGS,Prevalence (%),murine neutrophils,10.4%
TETSLRIVSTNP,Prevalence (%),murine neutrophils,4.1%
